Assays:
[1] = system: vaccinia and herpes simplex; conditions: in vitro, literature; cited from earlier work
[2] = system: Varicella zoster virus (VZV); assay: VZV plaque reduction assay in MRC5 cells (without agarose overlay); assay type: cell-based
Procedure: (§1) Human cytomegalovirus (HCMV) is assayed in monolayers of either MRC5 cells (human embryonic lung) or Detroit 532 cells (human foreskin fibroblasts) in multiwell trays. Activity of compounds is determined in the plaque reduction assay, in which a cell monolayer is infected with a suspension of HCMV, and then overlaid with nutrient agarose in the form of a gel to ensure that there is no spread of virus throughout the culture. A range of concentrations of compound of known molarity was incorporated in the nutrient agarose overlay. Plaque numbers of each concentration are expressed as percentage of the control and dose-response curve is drawn. From this curve the 50% inhibitory concentration (IC50) is estimated. Varicella zoster virus (VZV) is assayed in MRC5 cells by a similar method of that of MCMV with the omission of the agarose overlay.

[3] = system: Human cytomegalovirus (HCMV); assay: HCMV plaque reduction assay in MRC5 or Detroit 532 cells; assay type: cell-based
Procedure: as §1, with “estimated.” for “estimated. Varicella zoster virus (VZV) is assayed in MRC5 cells by a similar method of that of MCMV with the omission of the agarose overlay.”

[4] = Cell growth inhibition assay (cell toxicity, tetrazolium dye uptake); assay type: cell-based; conditions: monkey; Vero cells; 50% inhibition of cell viability at 96 hours; read-out: CCID50 at 96 hr.
Procedure: Cell toxicity is assessed in a cell growth inhibition assay. Subconfluent cultures of Vero cells grown on 96-well microtiter dishes are exposed to different dilutions of drug, and cell viability determined daily on replicate cultures using uptake of a tetrazolium dye (MIT). The concentration required for a 50% inhibition of cell viability at 96 hours is termed CCID50.

For C#Cc1cn([C@H]2C[C@H](O)[C@@H](CO)O2)c(=O)[nH]c1=O [2'-deoxy-5-ethynyluridine], the “antiviral activity against vaccinia and herpes simplex (in words)” value [1] is given as “did not demonstrate any effect of use in human medicinal chemotherapy”.

In the case of CC#Cc1cn([C@H]2C[C@H](O)[C@@H](CO)O2)c(=O)[nH]c1=O [Example 1, 2'-Deoxy-5-propynyluridine], the IC50 ([2]; Human alphaherpesvirus 3, MRC5, MRC5 cells, plaque reduction) is reported as 1 µM, the “activity against VZV (in words)” value ([2]; qualitative statement) is reported as “potent anti-VZV activity” and the IC50 ([3]; Human betaherpesvirus 5, MRC5, MRC5 or Detroit 532 cells, plaque reduction) is reported as greater than 16 µM. For the same molecule, the CC50 at 96 h [4] was greater than 500 µM.

C#Cc1cn([C@H]2C[C@H](OC(C)=O)[C@@H](COC(C)=O)O2)c(=O)nc1N [Example 2, 2'-Deoxy-3',5'-di-O-acetyl-5-ethynylcytidine] showed a CC50 at 96 h [4] greater than 500 µM.

With C#Cc1cn([C@H]2C[C@H](O)[C@@H](CO)O2)c(=O)nc1N [Example 3, 2'-Deoxy-5-ethynylcytidine] the “activity against CMV (in words)” value ([3]; qualitative statement) was “high activity against CMV”.

From patent US5028596A, “1-(β-D-arabinofuranosyl)-5-propynyluracil for treatment of VZV infections” (Burroughs Wellcome Co., priority 1987, dated 1991)
